Measured values from article PMC4521150, “Discovery of Novel Inhibitors and Fluorescent Probe Targeting NAMPT” (Scientific Reports, 2015).
Where two headings read alike, the source gives them in different places.

Experiments:
recombinant human NAMPT = molecular target: T1, recombinant human NAMPT (Homo sapiens, UniProt P43490); assay: HTS / fixed-concentration NAMPT activity screen (fluorometric); format: biochemical; settings: 20 μM compound; analogues of the 46 non-fluorescent inhibitors
T1 construct: His tag (N); made in house; host or cells: E. coli BL21-CodonPlus (DE3)-RIL, pET21a+ vector
T1 sequence (P43490 whole entry): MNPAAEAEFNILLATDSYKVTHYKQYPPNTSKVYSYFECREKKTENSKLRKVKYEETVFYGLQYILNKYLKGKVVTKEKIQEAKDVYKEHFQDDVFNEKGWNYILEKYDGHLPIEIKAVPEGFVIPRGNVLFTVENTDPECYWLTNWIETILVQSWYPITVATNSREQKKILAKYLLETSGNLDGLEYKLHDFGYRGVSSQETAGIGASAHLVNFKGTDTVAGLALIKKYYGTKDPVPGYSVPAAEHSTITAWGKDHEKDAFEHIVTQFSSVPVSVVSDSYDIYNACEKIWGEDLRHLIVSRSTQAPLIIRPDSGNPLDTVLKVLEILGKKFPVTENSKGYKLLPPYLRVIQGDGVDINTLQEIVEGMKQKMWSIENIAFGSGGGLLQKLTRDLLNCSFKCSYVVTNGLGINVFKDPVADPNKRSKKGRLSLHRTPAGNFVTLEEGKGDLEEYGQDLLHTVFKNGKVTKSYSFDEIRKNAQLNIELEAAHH
From the text: Using our previously established high throughput screening (HTS) platform and recombinant human NAMPT[14][15], we performed a HTS on a chemical library containing 30000 small-molecules (Chemdiv, CA, USA). Our HTS targeting NAMPT was developed based on a fluorometric method for NAMPT activity assay by measuring the fluorescence of nicotinamide mononucleotide (NMN) derivative resulting from the NAMPT enzymatic product NMN through simple chemical reactions (Fig. 1A). The 30000 compounds were dissolved with dimethyl sulfoxide (DMSO); most of compounds were soluble at 10 mM stock solution (94.1%), some compounds insoluble at 10 mM were soluble at 2.5 mM stock solution (4.4%), and the remaining compounds insoluble at 2.5 mM (1.5%) were diluted further during HTS experiments (Fig. 1B). To guarantee the quality of screening, S/N ratio, CV and Z’ factors were monitored throughout the screenings, and all three indices met the requirements of HTS (Fig. 1C–E). After a primary screen and a secondary screen of all compounds at 20 μM, 242 compounds were selected as the hits of NAMPT inhibitors (NAMPT activity < 40%), and the hit rate was ~0.8% (Fig. 1F). […] All these 55 compounds were not reported as NAMPT inhibitors previously. Among the 55 compounds, we noted 46 compounds were non-fluorescent and 9 compounds were fluorescent (Fig. 1F). These fluorescent and non-fluorescent compounds were further studied separately.
HTS was performed using our previously reported method. 0.5 μl stock of each compound (1 mM DMSO stock) was transferred to a 96-well PCR plate for screening. In the primary screening, 5 ng NAMPT in 20 μl reaction buffer [0.4 mM phosphoribosylpyrophosphate (PRPP, Sigma), 2 mM ATP, 0.02% BSA, 2 mM DTT, 12 mM MgCl2 and 50 mM Tris-HCl (pH = 7.5)] was added into each well, the plate was incubated at 37 °C for 5 min, then 4.5 μl substrate of NAM was added to initiate the enzyme reaction, resulting in a final concentration of 2% DMSO, 2 μg/ml NAMPT, 0.2 μM NAM and 20 μM compound. After reacting at 37 °C for 15 min, the enzyme reaction was terminated by heating at 95 °C for 1 min and cooling in an ice bath. The product of NMN was detected through the following approach: after adding 10 μl 20% acetophenone in DMSO and 10 μl 2 M KOH into each well, the mixture was vortex-mixed and kept in ice bath for 2 min. Then 45 μl 88% formic acid was added and the mixture was incubated at 37 °C for 10 min. Finally, 85 μl mixtures in each well were transferred into a flat-bottom 96-well black plate (Greiner), and the fluorescence (F) was measured using a Tecan Infinity M200 plate reader (Tecan Group Ltd.) by setting the excitation and emission wavelength to 382 nm and 445 nm respectively. The last row of each 96-well plate includes six wells of background controls and six wells of reference controls. The relative enzyme activity (Activity%) regulated by specific compound was calculated according to equation (1):
F0 was the averaged fluorescence of six background controls, representing zero activity from a simulated enzyme reaction with only NAMPT but no NAM and compound; F100% was the averaged fluorescence of six reference controls, representing 100% activity from intact enzyme reaction without compound perturbation.
Compounds with Activity% less than 40% were considered as inhibitors and subjected to a secondary screen inhibition validation, in which another background control (FC0), a simulated enzyme reaction with NAMPT and compound but no NAM, was introduced to eliminate the direct and/or indirect influence from compound. At this stage, the Activity% was calculated according to equation (2): […]

HepG2 cells = assay: Cell viability assay (CCK-8) in HepG2 cells; format: cell-based, human; settings: for IC50: HepG2, 48 h, CCK-8, read-out: IC50 for inhibitory effect on HepG2 cell viability
Protocol: Cell viability was determined by our previous method[27] using the Cell Counting Kit-8 (CCK-8, Dojindo, Japan). In human hepatocellular carcinoma cell line HepG2, cells were seeded in 96-well plate and starved for over 12 h with serum-free DMEM at 60~70% confluency, then treated with compounds or vehicle for 48 h. To determine the IC50 values of inhibitors, compounds with various concentrations were added into the 96-well plate. 10 μl CCK-8 solution was added to the culture medium and incubated at 37 °C for 1 h. The absorbance at 450 nm (A450) was detected by a plate reader. Each experiment was carried out in triplicate in three replicate wells. The IC50 values were determined by non-linear fitting of the concentration-dependent curves with the four-parameter IC50 logistic equation.

Huh-7 cell = assay: Cell viability in Huh-7 cells; format: cell-based, human; settings: Huh-7, Figure S2
From the text: However, IC50 values for other 5 fluorescent compounds were able to be determined (Supplemental dataset S2). We then measured the fluorescence of all 9 fluorescent compounds at a series of different concentrations.

Question: Which results are given for `CCCn1c(=O)c(-c2ccc(C(=O)NCc3cccnc3)cc2)nc2ccccc21` [M049-0244]?
Answer: NAMPT inhibition activity at 20 μM (recombinant human NAMPT): Yes; Rescue of cell viability by exogenous NMN (HepG2 cells; HepG2, 3 μM compound, NMN at 300 μM): totally rescued; IC50 (HepG2 cells): ~2 µM; IC50 (HepG2 cells; Homo sapiens): 1.95 ± 0.17 µM; Effect on HepG2 cell viability at 1 and 10 μM (HepG2 cells; two concentrations (1 and 10 μM)): significant inhibition on HepG2 cell viability in a dose dependent manner; Effect on Huh-7 cell viability (Huh-7 cell): Inhibitory effects
